pIC50: −log10 of the molar value.
Key:
AKT1 aa1-480 = biological target: T1, AKT1 aa1-480 (Homo sapiens, UniProt P31749); assay: Kinase profiling; assay type: biochemical; conditions: 10 semi-logarithmic dilutions from 50 μM, singlicate
T1 construct: AKT1 aa1-480

CDC7/DBF4 = CDC7/DBF4 (Homo sapiens, UniProt O00311); assay: Kinase profiling; assay type: biochemical; conditions: 10 semi-logarithmic dilutions from 50 μM, singlicate; read-out: IC50 CDC7/DBF4
CDK1/CycA2 = CDK1/CycA2 (Homo sapiens, UniProt P06493); assay: Kinase profiling; assay type: biochemical; conditions: 10 semi-logarithmic dilutions from 50 μM, singlicate
CDK1/CycB1 = CDK1/CycB1 (Homo sapiens, UniProt P06493); assay: Kinase profiling; assay type: biochemical; conditions: 10 semi-logarithmic dilutions from 50 μM, singlicate
CDK19/CycC = CDK19/CycC (Homo sapiens, UniProt Q9BWU1); assay: Kinase profiling; assay type: biochemical; conditions: 10 semi-logarithmic dilutions from 50 μM, singlicate
CDK2/CycA2 = CDK2/CycA2 (Homo sapiens, UniProt P24941); assay: Kinase profiling; assay type: biochemical; conditions: 10 semi-logarithmic dilutions from 50 μM, singlicate
CDK2/CycE1 = CDK2/CycE1 (Homo sapiens, UniProt P24941); assay: Kinase profiling; assay type: biochemical; conditions: 10 semi-logarithmic dilutions from 50 μM, singlicate
CDK3/CycC = CDK3/CycC (Homo sapiens, UniProt Q00526); assay: Kinase profiling; assay type: biochemical; conditions: 10 semi-logarithmic dilutions from 50 μM, singlicate
CDK3/CycE1 = CDK3/CycE1 (Homo sapiens, UniProt Q00526); assay: Kinase profiling; assay type: biochemical; conditions: 10 semi-logarithmic dilutions from 50 μM, singlicate
CDK4/CycD1 = CDK4/CycD1 (Homo sapiens, UniProt P11802); assay: Kinase profiling; assay type: biochemical; conditions: 10 semi-logarithmic dilutions from 50 μM, singlicate
CDK4/CycD3 = CDK4/CycD3 (Homo sapiens, UniProt P11802); assay: Kinase profiling; assay type: biochemical; conditions: 10 semi-logarithmic dilutions from 50 μM, singlicate
CDK6/CycD1 = CDK6/CycD1 (Homo sapiens, UniProt Q00534); assay: Kinase profiling; assay type: biochemical; conditions: 10 semi-logarithmic dilutions from 50 μM, singlicate
CDK6/CycD3 = CDK6/CycD3 (Homo sapiens, UniProt Q00534); assay: Kinase profiling; assay type: biochemical; conditions: 10 semi-logarithmic dilutions from 50 μM, singlicate
CDK7/CycH/MAT1 = CDK7/CycH/MAT1 (Homo sapiens, UniProt P50613); assay: Kinase profiling; assay type: biochemical; conditions: 10 semi-logarithmic dilutions from 50 μM, singlicate
CDK8/CycC = CDK8/CycC (Homo sapiens, UniProt P49336); assay: Kinase profiling; assay type: biochemical; conditions: 10 semi-logarithmic dilutions from 50 μM, singlicate
CDK9/CycK = CDK9/CycK (Homo sapiens, UniProt P50750); assay: Kinase profiling; assay type: biochemical; conditions: 10 semi-logarithmic dilutions from 50 μM, singlicate
ERK1 = ERK1 (Homo sapiens, UniProt P27361); assay: Kinase profiling; assay type: biochemical; conditions: 10 semi-logarithmic dilutions from 50 μM, singlicate
PIM1 = PIM1 (Homo sapiens, UniProt P11309); assay: Kinase profiling; assay type: biochemical; conditions: 10 semi-logarithmic dilutions from 50 μM, singlicate
[1] = tested on: H460 lung carcinoma cell line; assay: Proliferation assay: determination of GI50; assay type: cell-based, human; conditions: Homo sapiens, NCI-H460; Table 3; 48 h; n = 2 independent experiments
Summary of the method: (§1)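 Rb-proficient U87MG, MDA-MB-231 and H460 and Rb-deficient SW1783, grown in DMEM or RPMI-1640 with 10% FBS, treated for 48 h. Cells fixed in 4% PFA, Hoechst 33342-stained and counted by high-content imaging (20×, 30 fields/well); GI50 taken as absolute IC50 from dose-response fit.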

[2] = tested on: MCF10 non-transformed mammary epithelial cell line; assay: Proliferation assay: determination of GI50; assay type: cell-based, human; conditions: Homo sapiens, MCF10; Table 3; 48 h; n = 2 independent experiments
[3] = tested on: MDA-MB-231 breast carcinoma cell line; assay: Proliferation assay: determination of GI50; assay type: cell-based, human; conditions: Homo sapiens, MDA-MB-231; Table 3; 48 h; n = 3 independent experiments; read-out: GI50 MDA-MB231
Summary of the method: as §1

[4] = tested on: U87MG glioblastoma cell line; assay: Proliferation assay: determination of GI50; assay type: cell-based, human; conditions: Homo sapiens, U-87 MG; Table 3; 48 h; n = 3 independent experiments; read-out: GI50 U87MG
Summary of the method: as §1

[5] = tested on: panel of 27 kinases (CDK family members); assay: Kinase profiling, results in words; assay type: biochemical; conditions: from Table 1
[6] = tested on: MDA-MB-231 human breast cancer cells; assay: Cell cycle analysis (DNA content, flow cytometry); assay type: cell-based; conditions: GI50 concentration; FIG. 1

T1 sequence (P31749 whole entry, the tested form may be a part): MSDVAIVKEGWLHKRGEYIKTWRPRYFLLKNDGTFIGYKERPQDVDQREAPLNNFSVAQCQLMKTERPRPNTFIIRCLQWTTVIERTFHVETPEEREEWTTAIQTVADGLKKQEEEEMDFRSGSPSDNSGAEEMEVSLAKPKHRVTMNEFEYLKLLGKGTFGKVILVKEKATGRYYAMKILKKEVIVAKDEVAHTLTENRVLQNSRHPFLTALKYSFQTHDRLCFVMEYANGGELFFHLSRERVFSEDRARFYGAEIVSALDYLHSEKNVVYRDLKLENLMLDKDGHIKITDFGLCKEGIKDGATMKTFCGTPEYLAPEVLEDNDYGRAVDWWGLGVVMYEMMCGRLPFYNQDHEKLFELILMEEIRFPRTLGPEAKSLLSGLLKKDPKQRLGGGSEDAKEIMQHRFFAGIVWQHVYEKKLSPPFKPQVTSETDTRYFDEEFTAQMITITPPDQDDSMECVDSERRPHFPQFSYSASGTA
CDK6/CycD3, sequence (Q00534 whole entry): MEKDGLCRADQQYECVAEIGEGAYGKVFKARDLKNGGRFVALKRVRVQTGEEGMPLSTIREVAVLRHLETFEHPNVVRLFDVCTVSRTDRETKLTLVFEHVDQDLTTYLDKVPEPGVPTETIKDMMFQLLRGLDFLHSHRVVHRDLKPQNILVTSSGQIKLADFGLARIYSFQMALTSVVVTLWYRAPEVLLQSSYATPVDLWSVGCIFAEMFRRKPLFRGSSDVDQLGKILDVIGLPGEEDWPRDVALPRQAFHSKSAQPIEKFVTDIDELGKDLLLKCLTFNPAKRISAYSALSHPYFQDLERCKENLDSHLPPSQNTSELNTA
CDK6/CycD3, sequence (P30281 whole entry partner): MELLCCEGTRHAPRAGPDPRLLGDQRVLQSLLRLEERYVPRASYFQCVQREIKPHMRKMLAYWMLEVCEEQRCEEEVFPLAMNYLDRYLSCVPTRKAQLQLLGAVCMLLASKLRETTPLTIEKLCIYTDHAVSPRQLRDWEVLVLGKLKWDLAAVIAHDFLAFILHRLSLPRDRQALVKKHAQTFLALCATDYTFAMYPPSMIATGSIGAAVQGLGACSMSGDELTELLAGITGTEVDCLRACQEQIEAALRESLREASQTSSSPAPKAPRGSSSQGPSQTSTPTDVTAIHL
CDK6/CycD1, sequence (Q00534 whole entry): as the sequence (Q00534 whole entry) above
CDK6/CycD1, sequence (P24385 whole entry partner): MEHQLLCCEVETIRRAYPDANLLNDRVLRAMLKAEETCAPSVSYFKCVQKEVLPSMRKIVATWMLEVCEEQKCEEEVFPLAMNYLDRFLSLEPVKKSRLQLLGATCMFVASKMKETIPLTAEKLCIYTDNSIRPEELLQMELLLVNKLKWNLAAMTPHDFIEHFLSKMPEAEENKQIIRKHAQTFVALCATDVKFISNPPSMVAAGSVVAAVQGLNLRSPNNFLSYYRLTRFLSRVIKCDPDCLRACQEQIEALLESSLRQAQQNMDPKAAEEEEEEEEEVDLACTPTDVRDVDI
CDK4/CycD1, sequence (P11802 whole entry): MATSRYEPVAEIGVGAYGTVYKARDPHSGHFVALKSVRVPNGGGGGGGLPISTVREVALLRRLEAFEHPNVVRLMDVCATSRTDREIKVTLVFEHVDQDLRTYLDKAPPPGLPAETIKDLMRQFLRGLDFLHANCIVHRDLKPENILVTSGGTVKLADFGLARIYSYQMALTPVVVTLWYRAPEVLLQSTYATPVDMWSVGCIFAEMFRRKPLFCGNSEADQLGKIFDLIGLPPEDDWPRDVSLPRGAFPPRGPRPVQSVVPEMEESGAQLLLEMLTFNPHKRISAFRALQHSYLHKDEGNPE
CDK4/CycD1, sequence (P24385 whole entry partner): as the sequence (P24385 whole entry partner) above
CDK4/CycD3, sequence (P11802 whole entry): as the sequence (P11802 whole entry) above
CDK4/CycD3, sequence (P30281 whole entry partner): as the sequence (P30281 whole entry partner) above
CDK8/CycC, sequence (P49336 whole entry): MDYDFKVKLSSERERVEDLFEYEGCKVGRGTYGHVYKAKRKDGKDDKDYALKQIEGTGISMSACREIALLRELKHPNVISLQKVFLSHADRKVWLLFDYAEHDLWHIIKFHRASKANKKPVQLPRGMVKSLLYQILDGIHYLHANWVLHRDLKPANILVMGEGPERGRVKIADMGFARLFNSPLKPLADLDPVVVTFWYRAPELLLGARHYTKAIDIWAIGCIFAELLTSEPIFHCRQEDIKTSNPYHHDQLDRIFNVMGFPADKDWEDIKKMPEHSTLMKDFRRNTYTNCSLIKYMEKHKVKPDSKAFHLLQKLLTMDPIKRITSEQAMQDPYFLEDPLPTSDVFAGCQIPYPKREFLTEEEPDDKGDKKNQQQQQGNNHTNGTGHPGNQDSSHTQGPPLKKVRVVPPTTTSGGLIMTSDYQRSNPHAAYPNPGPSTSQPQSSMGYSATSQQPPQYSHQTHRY
CDK8/CycC, sequence (P24863 whole entry partner): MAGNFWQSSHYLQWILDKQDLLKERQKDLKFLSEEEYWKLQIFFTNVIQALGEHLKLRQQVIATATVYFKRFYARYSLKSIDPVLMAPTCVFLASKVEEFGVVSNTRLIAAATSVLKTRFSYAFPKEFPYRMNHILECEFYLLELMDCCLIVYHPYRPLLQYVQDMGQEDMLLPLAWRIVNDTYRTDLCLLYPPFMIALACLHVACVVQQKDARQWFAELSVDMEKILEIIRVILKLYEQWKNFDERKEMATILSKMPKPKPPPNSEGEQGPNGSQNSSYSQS
CDK1/CycB1, sequence (P06493 whole entry): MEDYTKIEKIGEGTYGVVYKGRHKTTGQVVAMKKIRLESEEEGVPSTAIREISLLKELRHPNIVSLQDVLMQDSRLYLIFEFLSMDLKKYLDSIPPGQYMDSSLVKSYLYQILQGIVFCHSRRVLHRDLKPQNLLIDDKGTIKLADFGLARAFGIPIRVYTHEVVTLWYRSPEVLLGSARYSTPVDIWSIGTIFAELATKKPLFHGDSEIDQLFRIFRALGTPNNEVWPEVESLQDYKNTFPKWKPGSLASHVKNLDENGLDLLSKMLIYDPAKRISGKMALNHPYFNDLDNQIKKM
CDK1/CycB1, sequence (P14635 whole entry partner): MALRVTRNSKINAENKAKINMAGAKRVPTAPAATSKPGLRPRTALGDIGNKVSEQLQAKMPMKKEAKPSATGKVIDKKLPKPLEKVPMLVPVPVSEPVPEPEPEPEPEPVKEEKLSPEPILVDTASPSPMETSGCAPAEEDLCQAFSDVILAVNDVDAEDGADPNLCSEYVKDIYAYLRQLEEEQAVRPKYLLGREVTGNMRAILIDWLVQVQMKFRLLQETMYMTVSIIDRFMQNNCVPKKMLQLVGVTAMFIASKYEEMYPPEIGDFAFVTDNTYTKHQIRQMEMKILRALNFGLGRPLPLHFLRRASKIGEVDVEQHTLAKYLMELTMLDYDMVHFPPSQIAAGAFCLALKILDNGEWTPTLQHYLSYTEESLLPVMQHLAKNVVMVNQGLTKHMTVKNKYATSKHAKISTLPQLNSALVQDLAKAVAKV
CDK1/CycA2, sequence (P06493 whole entry): as the sequence (P06493 whole entry) above
CDK1/CycA2, sequence (P20248 whole entry partner): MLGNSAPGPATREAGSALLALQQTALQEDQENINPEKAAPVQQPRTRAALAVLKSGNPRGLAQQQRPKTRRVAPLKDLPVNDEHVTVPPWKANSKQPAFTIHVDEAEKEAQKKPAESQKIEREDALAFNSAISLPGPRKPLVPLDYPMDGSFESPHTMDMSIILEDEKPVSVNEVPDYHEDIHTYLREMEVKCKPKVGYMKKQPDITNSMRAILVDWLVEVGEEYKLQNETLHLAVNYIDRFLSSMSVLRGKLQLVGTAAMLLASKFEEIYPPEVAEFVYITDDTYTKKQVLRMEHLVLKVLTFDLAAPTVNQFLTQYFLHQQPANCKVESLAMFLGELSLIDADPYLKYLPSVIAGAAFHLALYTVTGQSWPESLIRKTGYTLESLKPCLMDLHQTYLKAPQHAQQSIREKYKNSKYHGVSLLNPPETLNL
CDK19/CycC, sequence (Q9BWU1 whole entry): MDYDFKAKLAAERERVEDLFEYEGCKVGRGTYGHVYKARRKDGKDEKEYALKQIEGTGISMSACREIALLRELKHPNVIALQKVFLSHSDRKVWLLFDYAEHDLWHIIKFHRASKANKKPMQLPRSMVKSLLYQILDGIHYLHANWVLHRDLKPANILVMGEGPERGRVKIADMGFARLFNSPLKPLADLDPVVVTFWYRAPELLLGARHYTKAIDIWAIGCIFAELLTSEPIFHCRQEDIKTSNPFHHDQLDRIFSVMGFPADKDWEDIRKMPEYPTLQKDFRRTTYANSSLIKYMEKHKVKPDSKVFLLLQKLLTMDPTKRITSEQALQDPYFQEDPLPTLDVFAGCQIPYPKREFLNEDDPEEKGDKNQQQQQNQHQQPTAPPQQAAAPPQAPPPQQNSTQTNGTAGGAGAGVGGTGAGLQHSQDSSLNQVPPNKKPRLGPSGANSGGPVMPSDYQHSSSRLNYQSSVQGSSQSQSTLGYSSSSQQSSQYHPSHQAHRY
CDK19/CycC, sequence (P24863 whole entry partner): as the sequence (P24863 whole entry partner) above

Compound | pIC50 (AKT1 aa1-480) | pIC50 (CDC7/DBF4) | pIC50 (CDK1/CycA2) | pIC50 (CDK1/CycB1) | pIC50 (CDK19/CycC) | pIC50 (CDK2/CycA2) | pIC50 (CDK2/CycE1) | pIC50 (CDK3/CycC) | pIC50 (CDK3/CycE1) | pIC50 (CDK4/CycD1) | pIC50 (CDK4/CycD3) | pIC50 (CDK6/CycD1) | pIC50 (CDK6/CycD3) | pIC50 (CDK7/CycH/MAT1) | pIC50 (CDK8/CycC) | pIC50 (CDK9/CycK) | pIC50 (ERK1) | pIC50 (PIM1) | GI50 [1] | GI50 [2] | further results
CC(=O)c1c(C)c2cnc(Nc3ccc(N4CCNCC4)cc3)nc2n([C@@H]2CC3CCC2C3)c1=O (stereo partly drawn) [PS010, 6-acetyl-8-((2R)-bicyclo[2.2.1]heptan-2-yl)-5-methyl-2-((4-(piperazin-1-yl)phenyl)amino)pyrido[2,3-d]pyrimidin-7(8H)-one] | < 4.30 | 4.87 | 5.38 | 5.69 | 5.55 | 6.65 | 6.56 | 6.77 | 6.15 | 8.50 | 8.26 | 8.74 | 7.67 | 5.69 | 4.78 | 7.92 | 4.66 | 5.09 | 370 nM | 80 nM | GI50 [3]: 500 nM; GI50 [4]: 160 nM; affinity for CDK5 [5]: presented affinity; cell cycle arrest by DNA content [6]: accumulation of cells both in G1 and G2/M phases; cell death (sub-G1 accumulation) [6]: led to cell death
O=c1ccc2cnc(Nc3ccc(N4CCNCC4)cc3)nc2n1[C@@H]1CC2CCC1C2 (stereo partly drawn) [PS007, 8-((2R)-bicyclo[2.2.1]heptan-2-yl)-2-((4-(piperazin-1-yl)phenyl)amino)pyrido[2,3-d]pyrimidin-7(8H)-one] | 4.93 | 6.27 | 6.68 | 7.01 | 6.54 | 7.77 | 8.11 | 7.40 | 7.92 | > 8.82 | 8.65 | > 8.82 | 8.02 | 7.04 | 6.51 | 8.14 | 5.56 | 6.31 | 160 nM | 70 nM | GI50 [3]: 150 nM; GI50 [4]: 40 nM; kinase affinity profile [5]: bind many other CDK family members; cell cycle arrest by DNA content [6]: accumulation of cells both in G1 and G2/M phases; cell death (sub-G1 accumulation) [6]: led to cell death
CC(O)CCN1CCN(c2ccc(Nc3ncc4ccc(=O)n([C@@H]5CC6CCC5C6)c4n3)cc2)CC1 (stereo partly drawn) [PS005, 8-((2R)-bicyclo[2.2.1]heptan-2-yl)-2-((4-(4-(3-hydroxybutyl)piperazin-1-yl)phenyl)amino)pyrido[2,3-d]pyrimidin-7(8H)-one] | < 4.30 | 5.81 | 6.75 | 7.39 | 6.63 | 7.89 | 7.76 | 7.27 | 7.57 | > 8.82 | 8.53 | > 8.82 | 7.77 | 7.14 | 7.77 | 7.99 | 5.34 | 5.14 | 130 nM | 50 nM | GI50 [3]: 140 nM; GI50 [4]: 50 nM; kinase affinity profile [5]: bind many other CDK family members; cell cycle arrest by DNA content [6]: accumulation of cells both in G1 and G2/M phases; cell death (sub-G1 accumulation) [6]: led to cell death

— patent US20230042936A1, “PYRIDO[2,3-d]PYRIMIDIN-7(8H)-ONES AS CDK INHIBITORS” (PROSENESTAR LLC, priority 2020, published 2023)
